ChEMBL document CHEMBL1140631, “Carbonic anhydrases as targets for medicinal chemistry” (Bioorg Med Chem, 2007)

The compounds below were run against T1, Carbonic anhydrase 4 (Bos taurus, UniProt Q95323).
T1 sequence (Q95323 whole entry): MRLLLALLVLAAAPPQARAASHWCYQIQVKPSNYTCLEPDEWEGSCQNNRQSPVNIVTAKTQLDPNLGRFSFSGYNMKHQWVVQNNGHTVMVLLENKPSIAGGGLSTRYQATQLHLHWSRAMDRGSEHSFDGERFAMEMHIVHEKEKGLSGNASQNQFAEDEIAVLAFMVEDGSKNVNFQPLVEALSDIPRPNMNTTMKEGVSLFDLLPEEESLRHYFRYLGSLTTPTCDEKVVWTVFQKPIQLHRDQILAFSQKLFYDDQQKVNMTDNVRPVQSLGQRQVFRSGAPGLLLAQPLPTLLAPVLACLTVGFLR

| Ki [nM] | SMILES |
| --- | --- |
| 20 | NC(=O)Nc1ccc(S(=O)(=O)Nc2ccc(S(N)(=O)=O)cc2)cc1 |
| 12 | NS(=O)(=O)c1ccc(CC/N=C/c2ccncc2)cc1 |
| 8 | NS(=O)(=O)c1nnc(NC(=O)Nc2ccc(Cl)c(Cl)c2)s1 |
| 140 | NS(=O)(=O)c1ccc(CC/N=C/c2cccc([N+](=O)[O-])c2)cc1 |
| 8 | Cn1cccc1/C=N/CCc1ccc(S(N)(=O)=O)cc1 |
| 10 | NS(=O)(=O)c1ccc(CC/N=C/c2ccc[nH]2)cc1 |
| 70 | NS(=O)(=O)c1ccc(CCNC(=S)Nc2ccccc2)cc1 |
| 24 | NS(=O)(=O)c1ccc(CCNC(=S)NC(=O)Nc2ccc(Cl)c(Cl)c2)cc1 |
| 25 | NC(=O)Nc1ccc(S(=O)(=O)Nc2cccc(S(N)(=O)=O)c2)cc1 |
| 14 | Cc1ccc(S(=O)(=O)NC(=O)Nc2c(S(N)(=O)=O)cc(S(N)(=O)=O)c(Cl)c2Cl)cc1 |
| 10 | Cn1cccc1/C=N/Cc1ccc(S(N)(=O)=O)cc1 |
| 120 | Cc1ccc(S(=O)(=O)NC(=O)Oc2ccccc2/C=N/CCc2ccc(S(N)(=O)=O)cc2)cc1 |
| 11 | NS(=O)(=O)c1ccc(CC/N=C/c2ccccc2OC(=O)NS(=O)(=O)c2ccccc2)cc1 |

| SMILES | Ki [nM] |
| --- | --- |
| NS(=O)(=O)c1ccc(CC/N=C/c2ccccc2OC(=O)NS(=O)(=O)c2ccc(Cl)cc2)cc1 | 160 |
